Columns and labels:
[1] = Stability test, samples placed open for 7 days (HPLC and XRPD); format: physicochemical; details: for XRPD-7days / Purity (Peak area%) 7 days: open
Source text: Subsequently, the samples after 7 days were respectively detected by HPLC and XRPD to determine their chemical and physical stabilities.

[2] = Solubility comparison in water, SGF, FaSSIF and FeSSIF (HPLC of filtrates, XRPD of filter cakes); details: SGF, time not stated
[3] = Accelerated stability testing; format: physicochemical; details: 40°C±2°C/75%±5%RH, simulated commercial packaging
[4] = Long-term stability testing; format: physicochemical; details: 25°C±2°C/60%±5%RH, simulated commercial packaging
[5] = Grinding or crushing of the crystalline form; format: physicochemical
Source text: Table 28 Results of Stability Test

[6] = Stress testing (high temperature, high humidity, illumination); format: physicochemical
[7] = Stability test, samples placed open for 7 days (HPLC and XRPD); format: physicochemical; details: HPLC
[8] = Dynamic vapor sorption (DVS) test; format: physicochemical; details: DVS
Experimental: • Instrument: TA Instruments Q5000 SA • Detection method: 20 to 50 mg of the sample was placed in a tared sample basket and automatically weighed, and DVS testing was performed according to the parameters in Table 7: Step Time: 60 min; Equilibration Time per RH%: 1 hour; Total Gas Flow Rate: 200 sccm; Gradient mode: 0%-90%-0% humidity variation, with a humidity variation amount of 10% for each gradient level between 0% and 90%, and gradient endpoint was determined by dm/dt < 0.01% maintained for 10 minutes.

[9] = High Humidity (92.5% RH), 7 days
[10] = High Humidity (92.5% RH), 14 days
[11] = High Humidity (92.5% RH), 30 days
[12] = High Temperature (60°C), 7 days
[13] = High Temperature (60°C), 14 days
[14] = High Temperature (60°C), 30 days
[15] = Illumination Testing 4500lx±500lx, 7 days
[16] = Illumination Testing 4500lx±500lx, 14 days
[17] = Illumination Testing 4500lx±500lx, 30 days

With `CC(=O)c1c(C)c2cnc(Nc3ccc4c(c3)OC[C@@H]3CN(C5CCN(C)CC5)CCN43)nc2n(C2CCCC2)c1=O` [crystalline form A-I of the free base of compound A] the XRPD-7days ([1]; 40°C /75%RH) was “Unchanged”, the “Purity (Peak area%) 7 days” value ([1]; 40°C /75%RH, HPLC) was 99.20 Peak area% and the chemical stability ([1]; 60 °C, 92.5% RH and 40 °C/75% RH for 7 days, HPLC) was “chemically stable”. For the same molecule, the XRPD-7days ([1]; 60°C) was “Unchanged”, the “Purity (Peak area%) 7 days” value ([1]; 60°C, HPLC) was 99.24 Peak area% and the XRPD-7days ([1]; 92.5%RH) was “Unchanged”. For the same molecule, the “Purity (Peak area%) 7 days” value ([1]; 92.5%RH, HPLC) was 99.24 Peak area%, the “crystalline form (XRPD) after 7 days” value ([1]; under the three conditions 60 °C, 92.5% RH and 40 °C/75% RH) was “remained unchanged” and the “solubility in SGF” value [2] was “more than 5 mg/mL”. For the same molecule, the “description, loss on drying, relevant substances, crystalline form and content compared with 0 month” value ([3]; 6 months) was “basically the same”, the “Description Appearance” value ([3]; 0 months) was “Yellow solid” and the “Measured content (%)” value ([3]; 0 months) was 99.5%. For the same molecule, the “Total impurities (%)” value ([3]; 0 months) was 0.84%, the crystalline form ([3]; 0 months) was “crystalline form A-I of free base” and the “loss on drying (%)” value ([3]; 0 months) was 0.03%. The “Description Appearance” value ([3]; 1 month) was “Yellow solid”, the “Measured content (%)” value ([3]; 1 month) was 100.4% and the “Total impurities (%)” value ([3]; 1 month) was 0.80%. For the same molecule, the “loss on drying (%)” value ([3]; 1 month) was 0.04%, the “Description Appearance” value ([3]; 2 months) was “Yellow solid” and the “Measured content (%)” value ([3]; 2 months) was 100.8%. The “Total impurities (%)” value ([3]; 2 months) was 0.82%, the “loss on drying (%)” value ([3]; 2 months) was 0.02% and the “Description Appearance” value ([3]; 3 months) was “Yellow solid”. For the same molecule, the “Measured content (%)” value ([3]; 3 months) was 100.6%, the “Total impurities (%)” value ([3]; 3 months) was 0.85% and the crystalline form ([3]; 3 months) was “Unchanged”. The “loss on drying (%)” value ([3]; 3 months) was 0.02%, the “Description Appearance” value ([3]; 6 months) was “Yellow solid” and the “Measured content (%)” value ([3]; 6 months) was 100.9%. For the same molecule, the “Total impurities (%)” value ([3]; 6 months) was 0.77%, the crystalline form ([3]; 6 months) was “Unchanged” and the “loss on drying (%)” value ([3]; 6 months) was 0.08%. The “description, loss on drying, relevant substances, crystalline form and content compared with 0 month” value ([4]; 18 months) was “basically the same”, the “Description Appearance” value ([4]; 0 months) was “Yellow solid” and the “Measured content (%)” value ([4]; 0 months) was 99.5%. The “Total impurities (%)” value ([4]; 0 months) was 0.84%, the crystalline form ([4]; 0 months) was “crystalline form A-I of free base” and the “loss on drying (%)” value ([4]; 0 months) was 0.03%. For the same molecule, the “Description Appearance” value ([4]; 3 months) was “Yellow solid”, the “Measured content (%)” value ([4]; 3 months) was 100.8% and the “Total impurities (%)” value ([4]; 3 months) was 0.89%. For the same molecule, the crystalline form ([4]; 3 months) was “Unchanged”, the “loss on drying (%)” value ([4]; 3 months) was 0.02% and the “Description Appearance” value ([4]; 6 months) was “Yellow solid”. The “Measured content (%)” value ([4]; 6 months) was 100.6%, the “Total impurities (%)” value ([4]; 6 months) was 0.75% and the crystalline form ([4]; 6 months) was “Unchanged”. The “loss on drying (%)” value ([4]; 6 months) was 0.05%, the “Description Appearance” value ([4]; 9 months) was “Yellow solid” and the “Measured content (%)” value ([4]; 9 months) was 99.6%. The “Total impurities (%)” value ([4]; 9 months) was 0.73%, the crystalline form ([4]; 9 months) was “Unchanged” and the “loss on drying (%)” value ([4]; 9 months) was 0.05%. For the same molecule, the “Description Appearance” value ([4]; 12 months) was “Yellow solid”, the “Measured content (%)” value ([4]; 12 months) was 100.8% and the “Total impurities (%)” value ([4]; 12 months) was 0.78%. The crystalline form ([4]; 12 months) was “Unchanged”, the “loss on drying (%)” value ([4]; 12 months) was 0.05% and the “Description Appearance” value ([4]; 18 months) was “Yellow solid”. For the same molecule, the “Measured content (%)” value ([4]; 18 months) was 98.7%, the “Total impurities (%)” value ([4]; 18 months) was 0.71% and the crystalline form ([4]; 18 months) was “Unchanged”. For the same molecule, the “loss on drying (%)” value ([4]; 18 months) was 0.03%, the “crystalline form after grinding or crushing” value [5] was “remained unchanged” and the “Content (%)” value ([6]; 0 Day) was 99.5%. The “Description Appearance” value ([6]; 0 Day) was “Yellow solid”, the “Total impurities (%)” value ([6]; 0 Day) was 0.84% and the crystalline form ([6]; 0 Day) was “crystalline form A-I of free base”. For the same molecule, the “loss on drying (%)” value ([6]; 0 Day) was 0.03%, the “Content (%)” value [6, 9] was 100.2% and the “Description Appearance” value [6, 9] was “Yellow solid”. The “Hygroscopic weight gain (%)” value [6, 9] was 0.03%, the “Total impurities (%)” value [6, 9] was 0.76% and the “loss on drying (%)” value [6, 9] was 0.06%. The “Content (%)” value [6, 10] was 99.6%, the “Description Appearance” value [6, 10] was “Yellow solid” and the “Hygroscopic weight gain (%)” value [6, 10] was 0.05%. For the same molecule, the “Total impurities (%)” value [6, 10] was 0.78%, the “loss on drying (%)” value [6, 10] was 0.07% and the “Content (%)” value [6, 11] was 101.0%. For the same molecule, the “Description Appearance” value [6, 11] was “Yellow solid”, the “Hygroscopic weight gain (%)” value [6, 11] was 0.09% and the “Total impurities (%)” value [6, 11] was 0.87%. The crystalline form [6, 11] was “Unchanged”, the “loss on drying (%)” value [6, 11] was 0.05% and the “Content (%)” value [6, 12] was 100.4%. For the same molecule, the “Description Appearance” value [6, 12] was “Yellow solid”, the “Total impurities (%)” value [6, 12] was 0.76% and the “loss on drying (%)” value [6, 12] was 0.05%. The “Content (%)” value [6, 13] was 100.6%, the “Description Appearance” value [6, 13] was “Yellow solid” and the “Total impurities (%)” value [6, 13] was 0.83%. For the same molecule, the “loss on drying (%)” value [6, 13] was 0.05%, the “Content (%)” value [6, 14] was 100.1% and the “Description Appearance” value [6, 14] was “Yellow solid”. The “Total impurities (%)” value [6, 14] was 0.81%, the crystalline form [6, 14] was “Unchanged” and the “loss on drying (%)” value [6, 14] was 0.03%. The “Content (%)” value [6, 15] was 101.0%, the “Description Appearance” value [6, 15] was “Yellow solid” and the “Total impurities (%)” value [6, 15] was 0.76%. The “loss on drying (%)” value [6, 15] was 0.07%, the “Content (%)” value [6, 16] was 100.2% and the “Description Appearance” value [6, 16] was “Yellow solid”. For the same molecule, the “Total impurities (%)” value [6, 16] was 0.79%, the “loss on drying (%)” value [6, 16] was 0.06% and the “Content (%)” value [6, 17] was 100.2%. The “Description Appearance” value [6, 17] was “Yellow solid”, the “Total impurities (%)” value [6, 17] was 0.84% and the crystalline form [6, 17] was “Unchanged”. The “loss on drying (%)” value [6, 17] was 0.07%, the “stability in stress testing (conclusion)” value ([6]; high temperature, high humidity and illumination conditions) was “good stability” and the stability under illumination ([6]; illuminance 4500 lx±500 lx, total not less than 1.2×10^6 lux·hr, near-UV not less than 200 W·hr/m^2) was “relatively stable”. The “Purity (Peak area%) 0 day” value [7] was 99.16 Peak area%, the hygroscopic properties ([8]; 0%-90% RH) was “non-hygroscopic” and the weight change ([8]; across 0%-90% RH) was “approximately 0.17%”.

— patent EP4653445A1, “CDK INHIBITOR AND CRYSTAL FORM OF PHARMACEUTICALLY ACCEPTABLE SALT THEREOF, AND USE THEREOF” (CSPC Zhongqi Pharmaceutical Technology (Shijiazhuang) Co., …, priority 2023, dated 2024)
